Molecular target: T1, HIV-integrase (Human immunodeficiency virus type 1 group M subtype B, UniProt P12497)
T1 construct: Recombinant integrase (0.26 ng) was incubated with the beads
Assay: HIV-Integrase Inhibition Activity (SPA bead integration assay with P33 labeled target DNA)
Assay type: biochemical
Conditions: recombinant integrase, class symbols; read-out: in vitro activity
Summary of the method: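 Biotinylated substrate DNA on streptavidin SPA beads loaded with recombinant integrase (90 min, 37° C), washed, then inhibitor plus 0.1 fmol P33-labeled target DNA added. Reaction stopped with 10 mM EDTA; integration measured as CPM by scintillation, giving IC50 ranks.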

| SMILES | IC50 [nM] |
| --- | --- |
| CS(=O)(=O)NC12CCC(CC1)Cn1c2nc(C(=O)NCc2ccc(F)cc2)c(O)c1=O [Example 21, N-(4-Fluorobenzyl)-3-hydroxy-10-((methylsulfonyl)amino)-4-oxo-4,6,7,8,9,10-hexahydro-7,10-ethanopyrimido[1,2-a]azepine-2-carboxamide] | < 10 |
| CN(C)C(=O)C(=O)NC12CCC(CC1)Cn1c2nc(C(=O)NCc2ccc(F)c(C#N)c2)c(O)c1=O [Example 132, N′-(2-((3-Cyano-4-fluorobenzyl)carbamoyl)-3-hydroxy-4-oxo-6,7,8,9-tetrahydro-7,10-ethanopyrimido[1,2-a]azepin-10(4H)-yl)-N,N-dimethylethanediamide] | < 10 |
| CC(=O)NC12CCC(Cn3c1nc(C(=O)NCc1ccc(F)cc1)c(O)c3=O)OC2 (centres unmarked) [Example 221, 10-(Acetylamino)-N-(4-fluorobenzyl)-3-hydroxy-4-oxo-4,6,7,8,9,10-hexahydro-7,10-(epoxymethano)pyrimido[1,2-a]azepine-2-carboxamide] | < 10 |
| CN(C)C(=O)C(=O)NC12CCC(CC1)Cn1c2nc(C(=O)NCCC2CCCN2C)c(O)c1=O (centres unmarked) [Example 336] | > 100 |
| Cc1cc(CNC(=O)c2nc3n(c(=O)c2O)CC2CCC3(NC(=O)C(=O)N(C)CC(F)(F)F)CC2)ccc1F [Example 51, N′-(2-((4-Fluoro-3-methylbenzyl)carbamoyl)-3-hydroxy-4-oxo-6,7,8,9-tetrahydro-7,10-ethanopyrimido[1,2-a]azepin-10(4H)-yl)-N-methyl-N-(2,2,2-trifluoroethyl)ethanediamide] | < 10 |
| Cc1cc(CNC(=O)c2nc3n(c(=O)c2O)CC2CCC3(NC(=O)C3=NNC(=O)CC3)CC2)ccc1F [Example 305, 7,10-Ethanopyrimido[1,2-a]azepine-2-carboxamide, N-[(4-fluoro-3-methylphenyl)methyl]-4,6,7,8,9,10-hexahydro-3-hydroxy-4-oxo-10-[[(1,4,5,6-tetrahydro-6-oxo-3-pyridazinyl)carbonyl]amino]-] | < 10 |
| O=C(NC12CCC(CC1)Cn1c2nc(C(=O)NCc2ccc(F)cc2)c(O)c1=O)C(=O)N1CCN(CCOCCO)CC1 [Example 75, N-(4-Fluorobenzyl)-3-hydroxy-10-(((4-(2-(2-hydroxyethoxy)ethyl)-1-piperazinyl)(oxo)acetyl)amino)-4-oxo-4,6,7,8,9,10-hexahydro-7,10-ethanopyrimido[1,2-a]azepine-2-carboxamide] | < 10 |
| CS(=O)(=O)N1CCN(C(=O)C(=O)NC23CCC(CC2)Cn2c3nc(C(=O)NCc3ccc(F)cc3)c(O)c2=O)CC1 [Example 76, N-(4-Fluorobenzyl)-3-hydroxy-10-(((4-(methylsulfonyl)-1-piperazinyl)(oxo)acetyl)amino)-4-oxo-4,6,7,8,9,10-hexahydro-7,10-ethanopyrimido[1,2-a]azepine-2-carboxamide] | < 10 |
| CN(C)C(=O)C(=O)NC12CCC(CC1)Cn1c2nc(C(=O)NCc2cccs2)c(O)c1=O [Example 361] | < 10 |
| Cc1cc(CNC(=O)c2nc3n(c(=O)c2O)CC2CCC3(NC(=O)[C@H]3CCN(S(C)(=O)=O)C3)CC2)ccc1F [Example 283, 7,10-Ethanopyrimido[1,2-a]azepine-2-carboxamide, N-[(4-fluoro-3-methylphenyl)methyl]-4,6,7,8,9,10-hexahydro-3-hydroxy-10-[[[(3S)-1-(methylsulfonyl)-3-pyrrolidinyl]carbonyl]amino]-4-oxo-] | < 10 |
| COCCN(C)C(=O)C(=O)N(C)C12CCC(CC1)Cn1c2nc(C(=O)NCc2ccc(F)c(C)c2)c(O)c1=O [Example 168, N-(2-((4-Fluoro-3-methylbenzyl)carbamoyl)-3-hydroxy-4-oxo-6,7,8,9-tetrahydro-7,10-ethanopyrimido[1,2-a]azepin-10(4H)-yl)-N′-(2-methoxyethyl)-N,N′-dimethylethanediamide] | < 10 |
| O=C(NCc1ccc(F)cc1)c1nc2n(c(=O)c1O)CC1CCC2(NC(=O)C2CCCN2C(=O)C2CC2)CC1 (centres unmarked) [Example 407] | < 10 |
| CN(C)C(=O)C(=O)N(C)C12CCC(CC1)Cn1c2nc(C(=O)NCc2ccc(F)c(Cl)c2)c(O)c1=O [Example 158, N-(2-((3-Chloro-4-fluorobenzyl)carbamoyl)-3-hydroxy-4-oxo-6,7,8,9-tetrahydro-7,10-ethanopyrimido[1,2-a]azepin-10(4H)-yl)-N,N′,N′-trimethylethanediamide] | < 10 |
| CN(CCO)C(=O)C(=O)NC12CCC(CC1)Cn1c2nc(C(=O)NCc2ccc(F)cc2)c(O)c1=O [Example 81, N′-(2-((4-Fluorobenzyl)carbamoyl)-3-hydroxy-4-oxo-6,7,8,9-tetrahydro-7,10-ethanopyrimido[1,2-a]azepin-10(4H)-yl)-N-(2-hydroxyethyl)-N-methylethanediamide] | < 10 |
| COC(=O)C(=O)NC12CCC(CCn3c1nc(C(=O)NCc1ccc(F)cc1)c(O)c3=O)C2 (centres unmarked) [Example 210, Acetic acid, [[2-[[[(4-fluorophenyl)methyl]amino]carbonyl]-7,8,9,10-tetrahydro-3-hydroxy-4-oxo-8,1′-methano-4H-pyrimido[1,2-a]azocin-11(6H)-yl]amino]oxo-, methyl ester] | < 10 |
| CN(C)C(=O)C(=O)NC12CCC(CC1)Cn1c2nc(C(=O)NCc2ccc(Cl)cc2)c(O)c1=O [Example 374] | < 10 |
| O=C(NC12CCC(CC1)Cn1c2nc(C(=O)NCc2ccc(F)cc2)c(O)c1=O)C(=O)N1CC[C@@H](F)C1 [Example 104, N-(4-Fluorobenzyl)-10-((((3R)-3-fluoro-1-pyrrolidinyl)(oxo)acetyl)amino)-3-hydroxy-4-oxo-4,6,7,8,9,10-hexahydro-7,10-ethanopyrimido[1,2-a]azepine-2-carboxamide] | < 10 |
| CC(=O)N1[C@@H]2C[C@@H]2C[C@H]1C(=O)NC12CCC(CC1)Cn1c2nc(C(=O)NCc2ccc(F)cc2)c(O)c1=O [Example 270, 7,10-Ethanopyrimido[1,2-a]azepine-2-carboxamide, 10-[[[(1R,3S,5R)-2-acetyl-2-azabicyclo[3.1.0]hex-3-yl]carbonyl]amino]-N-[(4-fluorophenyl)methyl]-4,6,7,8,9,10-hexahydro-3-hydroxy-4-oxo-] | < 10 |
| CN(C)C(=O)C(=O)NC12CCC(CC1)Cn1c2nc(C(=O)NCc2ccc(N(C)C)cc2)c(O)c1=O [Example 378] | 10 to 100 |
| CN(C)C(=O)C(=O)NC12CCC(CC1)Cn1c2nc(C(=O)NCc2ccccc2)c(O)c1=O [Example 129, N′-(2-(Benzylcarbamoyl)-3-hydroxy-4-oxo-6,7,8,9-tetrahydro-7,10-ethanopyrimido[1,2-a]azepin-10(4H)-yl)-N,N-dimethylethanediamide] | < 10 |
| Cc1c(F)cc(Br)c(CNC(=O)c2nc3n(c(=O)c2O)CC2CCC3(N(C)C(=O)C(=O)N(C)C)CC2)c1Br [Example 162, N-(2-((2,6-Dibromo-4-fluoro-3-methylbenzyl)carbamoyl)-3-hydroxy-4-oxo-6,7,8,9-tetrahydro-7,10-ethanopyrimido[1,2-a]azepin-10(4H)-yl)-N,N′,N′-trimethylethanediamide] | < 10 |
| O=C(NC12CCC(CC1)Cn1c2nc(C(=O)NCc2ccc(F)cc2)c(O)c1=O)C(=O)N1CCCCC1 [Example 59, N-(4-Fluorobenzyl)-3-hydroxy-4-oxo-10-((oxo(1-piperidinyl)acetyl)amino)-4,6,7,8,9,10-hexahydro-7,10-ethanopyrimido[1,2-a]azepine-2-carboxamide] | < 10 |
| Cn1cnc(C(=O)NC23CCC(CC2)Cn2c3nc(C(=O)NCc3ccc(F)cc3)c(O)c2=O)n1 [Example 54, N-(4-Fluorobenzyl)-3-hydroxy-10-(((1-methyl-1H-1,2,4-triazol-3-yl)carbonyl)amino)-4-oxo-4,6,7,8,9,10-hexahydro-7,10-ethanopyrimido[1,2-a]azepine-2-carboxamide] | < 10 |
| CC(=O)N[C@H]1CCN(C(=O)C(=O)NC23CCC(CC2)Cn2c3nc(C(=O)NCc3ccc(F)cc3)c(O)c2=O)C1 [Example 68, 10-((((3S)-3-(Acetylamino)-1-pyrrolidinyl) (oxo)acetyl)amino)-N-(4-fluorobenzyl)-3-hydroxy-4-oxo-4,6,7,8,9,10-hexahydro-7,10-ethanopyrimido[1,2-a]azepine-2-carboxamide] | < 10 |
| O=C(NC12CCC(CC1)Cn1c2nc(C(=O)NCc2ccc(F)cc2)c(O)c1=O)OCc1ccccc1 [Example 18, Benzyl (2-((4-fluorobenzyl)carbamoyl)-3-hydroxy-4-oxo-6,7,8,9-tetrahydro-7,10-ethanopyrimido[1,2-a]azepin-10(4H)-yl)carbamate] | < 10 |
| O=C(NC12CCC(CCn3c1nc(C(=O)NCc1ccc(F)cc1)c(O)c3=O)C2)C(=O)N1CCCC1 (centres unmarked) [Example 200, 8,11-Methano-4H-pyrimido[1,2-a]azocine-2-carboxamide, 11-[[1,2-dioxo-2-(1-pyrrolidinyl)ethyl]amino]-N-[(4-fluorophenyl)methyl]-6,7,8,9,10,11-hexahydro-3-hydroxy-4-oxo] | < 10 |
| O=C(NC12CCC(CC1)Cn1c2nc(C(=O)NCc2ccc(F)cc2)c(O)c1=O)C(=O)N1CCN(C(=O)c2ccccn2)CC1 [Example 140, N-(4-Fluorobenzyl)-3-hydroxy-4-oxo-10-((oxo(4-(2-pyridinylcarbonyl)-1-piperazinyl)acetyl)amino)-4,6,7,8,9,10-hexahydro-7,10-ethanopyrimido[1,2-a]azepine-2-carboxamide] | < 10 |
| O=C(NC12CCC(CC1)Cn1c2nc(C(=O)NCc2ccc(F)cc2)c(O)c1=O)C(=O)N1CCC(F)(F)C1 [Example 70, 10-(((3,3-Difluoro-1-pyrrolidinyl)(oxo)acetyl)amino)-N-(4-fluorobenzyl)-3-hydroxy-4-oxo-4,6,7,8,9,10-hexahydro-7,10-ethanopyrimido[1,2-a]azepine-2-carboxamide] | < 10 |
| O=C(NC12CCC(CC1)Cn1c2nc(C(=O)NCc2ccc(F)cc2)c(O)c1=O)C(=O)N1CC(O)C1 [Example 65, N-(4-Fluorobenzyl)-3-hydroxy-10-(((3-hydroxy-1-azetidinyl) (oxo)acetyl)amino)-4-oxo-4,6,7,8,9,10-hexahydro-7,10-ethanopyrimido[1,2-a]azepine-2-carboxamide] | < 10 |

From patent US8129398B2 (priority 2008, dated 2012)
